Test results published in patent publication US11999803B2, “Proteasome inhibitors” (University of Kentucky Research Foundation, priority 2018, dated 2024).

Columns and labels:
LMP2 [1] = test: LMP2 inhibition (figure legend); format: biochemical
[2] = tested on: APP transgenic mouse model of AD (Tg2576); test: Morris water maze test in Tg2576 mice; format: in vivo
Description: (§1) FIG. 1A includes a schematic illustration showing the experimental schedule for a behavior test to assess cognitive impairment following administration of YU102 or YU102 epimer, as compared to control. YU102 is an inhibitor of the immunoproteasome subunit LMP2.
With reference to FIG. 1B, cognitive function in Tg2576 mice was evaluated by the Morris water maze test, and escape latency time (left) and escape distance of the mice (right) was assessed. Statistical analyses of escape latency and escape distance were performed via two-way ANOVA.

[3] = tested on: APP transgenic mouse model of AD (Tg2576); test: Probe trial in Tg2576 mice; format: in vivo; conditions: Student's t-test, p-value<0.05, n=8
Description: as §1
(§2) With reference to FIG. 1C, upon the completion of the Morris water maze test, Tg2576 mice were evaluated in the probe trial (left) and passive avoidance test (right). Statistical analyses of probe trial and passive avoidance were performed via Student's t-test.

[4] = tested on: APP transgenic mouse model of AD (Tg2576); test: Passive avoidance test in Tg2576 mice; format: in vivo; conditions: Student's t-test, p-value<0.05, n=8
Description: as §1, §2

LMP2 [5] = biological target: T1, LMP2 (Mus musculus, UniProt P28076); test: Proteasome activities in tissue of treated mice, fluorogenic substrates; format: in vivo; conditions: Tg2576 mice, p-value<0.05, n=3
T1 construct: proteasome activities in brain, spleen, and liver tissue collected from mice treated with vehicle (control), YU102 (10 mg/kg); from tissue; host or cells: brain, spleen and liver tissue of Tg2576 mice
Description: With reference to FIG. 1D, proteasome activities in brain, spleen, and liver tissue collected from mice treated with vehicle (control), YU102 (10 mg/kg), or YU102 epimer (10 mg/kg) were measured using fluorogenic substrates.

[6] = tested on: LPS-stimulated BV-2 cells; test: Cytokine and chemokine protein array in LPS-stimulated BV-2 cells; format: cell-based; conditions: 3 μM with LPS (1 μg/mL)
Description: With reference to FIG. 2, cytokine production was assessed in LPS-stimulated BV-2 cells. Cytokine and chemokine protein array blots were obtained from BV-2 cells treated with vehicle, LPS (1 μg/mL) alone, and YU102 (3 μM) or ONX0914 (3 μM) with LPS (1 μg/mL). The signal intensity of each cytokine or chemokine was expressed relative to the mean of the intensity of the corresponding spots from vehicle control sample. The bar graph depicts the fold change of each cytokine or chemokine (mean).

| SMILES | LMP2 inhibition (LMP2 [1]) | cognitive deficits ([2]; APPsw (Tg2576) mice, FIGS. 1A-1D) | escape distance, difference between control and treated mice ([2]; Tg2576 mice, days 3-5, two-way ANOVA, p-value<0.05, n=8) | time spent in target quadrant, difference between control and treated mice [3] | step through latency, difference between control and treated mice [4] | LMP2 inhibitory activity in spleen and liver tissues, difference between YU102-treated and YU102 epi-treated group (LMP2 [5]; 10 mg/kg each) | LMP2 inhibitory activity in spleen and liver tissues, difference between control and treated group (LMP2 [5]; 10 mg/kg) | cytokine production [6] |
| --- | --- | --- | --- | --- | --- | --- | --- | --- |
| CC(=O)NCC(=O)N1CCC[C@H]1C(=O)N[C@@H](Cc1ccccc1)C(=O)N[C@@H](CC(C)C)C(=O)[C@]1(C)CO1 [YU102 epi] | does not inhibit LMP2 |  |  |  |  |  |  |  |
| CC(=O)NCC(=O)N1CCC[C@H]1C(=O)N[C@@H](Cc1ccccc1)C(=O)N[C@@H](CC(C)C)C(=O)[C@@]1(C)CO1 [YU102] | selective LMP2 inhibitor | amelioration of cognitive deficits | statistically significant | statistically significant | statistically significant | statistically significant | statistically significant | suppression of cytokine production |
